In ChEMBL document CHEMBL2016457, “Discovery of potent and orally bioavailable 17β-hydroxysteroid dehydrogenase type 3 inhibitors” (Bioorg Med Chem, 2012):
Active and inactive are the calls of the source. No rule for the calls is given here.

Key:
[1] = target: T1, 17-beta-hydroxysteroid dehydrogenase type 1 (Homo sapiens) (UniProt P14061); test: Inhibition of human recombinant 17-beta-HSD1 expressed in human HeLa cells using estrone as substrate preincubated for 30 mins prior substrate addition measured after 120 mins by spectrophotometry; format: cell-based
T1 sequence (whole entry): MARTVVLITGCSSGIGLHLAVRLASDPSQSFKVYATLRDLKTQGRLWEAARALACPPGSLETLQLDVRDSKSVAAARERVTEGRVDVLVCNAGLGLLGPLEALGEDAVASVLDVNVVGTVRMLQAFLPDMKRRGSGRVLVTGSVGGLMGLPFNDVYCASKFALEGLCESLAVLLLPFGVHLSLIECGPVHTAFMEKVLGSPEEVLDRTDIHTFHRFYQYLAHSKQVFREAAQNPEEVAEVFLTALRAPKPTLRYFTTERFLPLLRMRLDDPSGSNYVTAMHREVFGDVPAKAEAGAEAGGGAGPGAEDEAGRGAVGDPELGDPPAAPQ

[2] = target: T2, 17-beta-hydroxysteroid dehydrogenase type 2 (Homo sapiens) (UniProt P37059); test: Inhibition of human recombinant 17-beta-HSD2 expressed in human HeLa cells using estradiol as substrate preincubated for 30 mins prior substrate addition measured after 120 mins by spectrophotometry; format: cell-based
T2 sequence (whole entry): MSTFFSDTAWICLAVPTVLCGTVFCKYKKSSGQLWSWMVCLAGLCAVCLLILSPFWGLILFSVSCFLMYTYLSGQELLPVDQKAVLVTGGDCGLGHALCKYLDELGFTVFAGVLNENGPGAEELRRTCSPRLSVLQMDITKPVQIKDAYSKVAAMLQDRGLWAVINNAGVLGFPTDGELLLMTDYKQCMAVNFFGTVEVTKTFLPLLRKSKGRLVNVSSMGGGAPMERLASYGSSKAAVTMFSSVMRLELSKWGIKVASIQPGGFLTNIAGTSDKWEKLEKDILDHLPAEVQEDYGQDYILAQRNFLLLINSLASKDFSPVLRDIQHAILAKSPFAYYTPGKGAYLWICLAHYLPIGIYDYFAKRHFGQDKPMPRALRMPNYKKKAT

[3] = target: T3, Glucocorticoid receptor (Homo sapiens) (UniProt P04150); test: Agonist activity at human Glucocorticoid receptor expressed in human HeLa cells assessed as DHT-induced response after 40 hrs by luciferase/beta-galactosidase-based reporter gene assay; format: functional, cell-based
T3 sequence (whole entry): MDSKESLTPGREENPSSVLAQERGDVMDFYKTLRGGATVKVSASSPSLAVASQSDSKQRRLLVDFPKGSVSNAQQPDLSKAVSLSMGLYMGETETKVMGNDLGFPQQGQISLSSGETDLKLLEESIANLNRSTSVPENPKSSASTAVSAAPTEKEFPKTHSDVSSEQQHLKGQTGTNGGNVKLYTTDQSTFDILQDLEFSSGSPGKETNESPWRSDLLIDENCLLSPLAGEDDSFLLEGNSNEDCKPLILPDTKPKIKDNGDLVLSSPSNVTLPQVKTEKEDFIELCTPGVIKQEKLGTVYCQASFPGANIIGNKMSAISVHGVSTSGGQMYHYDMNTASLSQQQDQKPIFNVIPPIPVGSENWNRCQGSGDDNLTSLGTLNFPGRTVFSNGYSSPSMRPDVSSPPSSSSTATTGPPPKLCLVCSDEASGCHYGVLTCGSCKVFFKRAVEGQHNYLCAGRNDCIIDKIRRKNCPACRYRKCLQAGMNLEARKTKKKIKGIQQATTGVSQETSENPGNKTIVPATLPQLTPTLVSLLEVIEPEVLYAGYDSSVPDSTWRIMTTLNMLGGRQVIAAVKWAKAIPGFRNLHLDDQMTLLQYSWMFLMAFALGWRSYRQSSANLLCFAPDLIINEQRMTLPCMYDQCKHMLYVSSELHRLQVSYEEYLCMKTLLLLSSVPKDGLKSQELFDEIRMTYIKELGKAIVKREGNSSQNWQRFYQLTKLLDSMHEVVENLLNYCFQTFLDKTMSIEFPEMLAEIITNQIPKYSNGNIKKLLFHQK

[4] = target: T3, Glucocorticoid receptor (Homo sapiens); test: Antagonist activity at human GR receptor expressed in human HeLa cells assessed as inhibition of DHT-induced response after 40 hrs by luciferase/beta-galactosidase-based reporter gene assay; format: functional, cell-based
[5] = target: T4, Estrogen receptor (Homo sapiens) (UniProt P03372); test: Antagonist activity at human ERalpha receptor expressed in human HeLa cells assessed as inhibition of DHT-induced response after 40 hrs by luciferase/beta-galactosidase-based reporter gene assay; format: functional, cell-based
T4 sequence (whole entry): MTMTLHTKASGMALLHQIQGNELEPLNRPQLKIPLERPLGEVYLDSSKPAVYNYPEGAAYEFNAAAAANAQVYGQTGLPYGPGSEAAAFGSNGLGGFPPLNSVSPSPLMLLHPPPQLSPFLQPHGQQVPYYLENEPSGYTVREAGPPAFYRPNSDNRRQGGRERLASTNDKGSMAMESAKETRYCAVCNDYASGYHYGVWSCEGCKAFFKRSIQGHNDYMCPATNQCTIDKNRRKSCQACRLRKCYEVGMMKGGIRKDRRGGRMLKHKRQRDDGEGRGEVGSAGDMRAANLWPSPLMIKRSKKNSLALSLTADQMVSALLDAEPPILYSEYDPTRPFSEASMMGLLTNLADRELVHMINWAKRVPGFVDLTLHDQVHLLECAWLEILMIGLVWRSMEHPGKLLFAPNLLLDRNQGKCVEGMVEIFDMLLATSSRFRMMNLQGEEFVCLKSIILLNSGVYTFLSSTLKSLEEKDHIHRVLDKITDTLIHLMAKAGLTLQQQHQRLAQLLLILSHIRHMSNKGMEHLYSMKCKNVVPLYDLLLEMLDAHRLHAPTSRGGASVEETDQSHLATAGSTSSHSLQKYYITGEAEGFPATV

[6] = target: T4, Estrogen receptor (Homo sapiens); test: Agonist activity at human Estrogen receptor ERalpha expressed in human HeLa cells assessed as DHT-induced response after 40 hrs by luciferase/beta-galactosidase-based reporter gene assay; format: functional, cell-based
[7] = target: T5, Androgen receptor (Homo sapiens) (UniProt P10275); test: Antagonist activity at human androgen receptor expressed in human HeLa cells assessed as inhibition of DHT-induced response after 40 hrs by luciferase/beta-galactosidase-based reporter gene assay; format: functional, cell-based
T5 sequence (whole entry): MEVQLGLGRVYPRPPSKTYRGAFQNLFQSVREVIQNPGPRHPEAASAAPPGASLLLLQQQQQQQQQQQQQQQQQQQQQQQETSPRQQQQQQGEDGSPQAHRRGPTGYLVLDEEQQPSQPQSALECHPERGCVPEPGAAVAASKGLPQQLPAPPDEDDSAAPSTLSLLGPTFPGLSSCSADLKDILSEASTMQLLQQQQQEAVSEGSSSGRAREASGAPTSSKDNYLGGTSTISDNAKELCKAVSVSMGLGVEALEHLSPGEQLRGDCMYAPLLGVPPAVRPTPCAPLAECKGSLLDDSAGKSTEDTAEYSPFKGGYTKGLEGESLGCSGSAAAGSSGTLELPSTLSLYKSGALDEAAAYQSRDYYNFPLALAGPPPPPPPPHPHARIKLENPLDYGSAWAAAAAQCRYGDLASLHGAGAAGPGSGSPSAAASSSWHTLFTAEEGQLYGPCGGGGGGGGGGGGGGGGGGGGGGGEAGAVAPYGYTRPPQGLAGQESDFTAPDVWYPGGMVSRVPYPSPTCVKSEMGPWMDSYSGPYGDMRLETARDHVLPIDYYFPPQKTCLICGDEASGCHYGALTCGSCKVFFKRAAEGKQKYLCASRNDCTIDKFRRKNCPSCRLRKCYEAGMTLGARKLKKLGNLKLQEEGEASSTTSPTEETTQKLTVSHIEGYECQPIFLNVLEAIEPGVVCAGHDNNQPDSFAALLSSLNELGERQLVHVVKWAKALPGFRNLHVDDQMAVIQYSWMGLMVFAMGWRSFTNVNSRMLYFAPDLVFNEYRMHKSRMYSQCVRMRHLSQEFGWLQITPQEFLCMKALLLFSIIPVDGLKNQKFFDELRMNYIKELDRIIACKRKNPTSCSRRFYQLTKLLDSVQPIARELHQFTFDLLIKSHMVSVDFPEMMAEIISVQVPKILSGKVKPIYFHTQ

[8] = target: T5, Androgen receptor (Homo sapiens); test: Agonist activity at human androgen receptor expressed in human HeLa cells assessed as DHT-induced response after 40 hrs by luciferase/beta-galactosidase-based reporter gene assay; format: functional, cell-based
[9] = target: T6, 17-beta-hydroxysteroid dehydrogenase type 3 (Homo sapiens, UniProt P37058)
T6 sequence (P37058 whole entry): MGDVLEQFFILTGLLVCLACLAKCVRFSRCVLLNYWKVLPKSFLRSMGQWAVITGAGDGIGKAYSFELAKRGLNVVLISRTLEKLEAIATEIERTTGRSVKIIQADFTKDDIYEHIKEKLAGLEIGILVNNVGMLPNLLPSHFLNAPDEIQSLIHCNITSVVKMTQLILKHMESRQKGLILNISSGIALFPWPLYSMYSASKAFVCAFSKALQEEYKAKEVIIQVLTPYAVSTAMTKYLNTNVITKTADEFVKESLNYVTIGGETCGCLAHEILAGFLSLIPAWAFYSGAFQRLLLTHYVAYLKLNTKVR
Description: Inhibition of human recombinant 17-beta-HSD3 expressed in human HeLa cells using androstenedione as substrate preincubated for 30 mins prior substrate addition measured after 120 mins by spectrophotometry

SMILES | inhibition [1] | inhibition [2] | Activity [3] | Activity [4] | Activity [5] | Activity [6] | Activity [7] | Activity [8] | IC50 [9] [nM]
COc1ccc(N2C(=O)/C(=C/c3ccc(O)cc3)OC2=S)cc1 | inactive | inactive | inactive | inactive | inactive | inactive | inactive | inactive | 121
C=CCN1C(=O)/C(=C/c2ccc(O)c(Br)c2)SC1=S | inactive | inactive | inactive | inactive | inactive | inactive | inactive | inactive | 120
O=C(c1ccc(N2C(=O)O/C(=C\c3ccc(O)c(Br)c3)C2=O)cc1)N1CCOCC1 | inactive | inactive | inactive | inactive | inactive | inactive | inactive | inactive | 300
COc1ccc(N2C(=O)/C(=C/c3ccc(O)c(OC)c3)OC2=S)cc1 | inactive | inactive | inactive | inactive | inactive | inactive | inactive | inactive | 270
COc1ccc(N2C(=O)C(Cc3ccc(O)c(Br)c3)SC2=S)cc1 (centres undefined) | inactive | inactive | inactive | inactive | inactive | inactive | inactive | inactive | 90

Further molecules by falling IC50 [9], results first:

inhibition [1] | inhibition [2] | Activity [3] | Activity [4] | Activity [5] | Activity [6] | Activity [7] | Activity [8] | IC50 [9] [nM] | SMILES
inactive | inactive | inactive | inactive | inactive | inactive | inactive | inactive | 90 | COc1ccc(N2C(=O)/C(=C/c3ccc(O)cn3)OC2=S)cc1
inactive | inactive | inactive | inactive | inactive | inactive | inactive | inactive | 25 | CN(C)c1ccc(N2C(=O)O/C(=C\c3ccc(O)c(Br)c3)C2=O)cc1
inactive | inactive | inactive | inactive | inactive | inactive | inactive | inactive | 21 | O=C1O/C(=C\c2ccc(O)c(Br)c2)C(=O)N1c1ccc(F)nc1
inactive | inactive | inactive | inactive | inactive | inactive | inactive | inactive | 20 | COc1ccc(N2C(=O)/C(=C/c3ccc(O)c(C)c3)OC2=S)cc1
inactive | inactive | inactive | inactive | inactive | inactive | inactive | inactive | 3 | O=C1/C(=C/c2ccc(O)c(Br)c2)SC(=S)N1C1CCCCC1
inactive | inactive | inactive | inactive | inactive | inactive | inactive | inactive | 2 | Cc1ccc(N2C(=O)/C(=C/c3ccc(O)c(Br)c3)OC2=S)cc1
